Experimental data: patent US10407445B2, “Hepatitis C virus inhibitors” (ENANTA PHARMACEUTICALS, INC., priority 2013, dated 2019)
Like-named read-outs stand apart in the source and are kept apart here.

How the values were obtained:
Type in all cases: cell-based
HCV GT 1a replicon = assay: HCV replicon assay, stable GT 1a replicon (Renilla luciferase); conditions: Hepatitis C virus, GT1A
Procedure: The activity of compounds was determined against HCV replicons representing genotypes (GT) 1a, 1b, 2a, and 3a. To generate stable Huh-7.5-based cell lines, HCV replicons were engineered to express the Renilla luciferase reporter (hRluc) fused to the neomycin phosphotransferase (Neo) gene. GT2a and GT3a HCV replicons were based on the JFH-1 subgenomic replicon (Kato et al. 2003 Gastroenterology, 125:1808-1817), in which the NS5A gene was replaced with that of strains J6 and S52 (GT2a and G3a, respectively). The activity of compounds against GT1a replicons encoding NS5A mutations (M28T, Q30R, L31M, Y93C, and Y93H) was also determined in a transient replication assay. The parental GT1a and GT2a replicons (pH/SG-Neo(L+I) and pSG-Neo-JFH1, respectively) were licensed from Apath LLC (Saint Louis, Mo.). The parental GT 1b replicon (pFKi389lucubineo_3_3′_ET) was licensed from ReBLikon GmbH (Germany). HCV replicons were constructed by standard molecular biology techniques described below. All replicon constructs were verified by restriction enzyme digestion and DNA sequencing.
pH/SG-Neo(L+I) was modified to add the firefly luciferase reporter gene and additional adaptive mutations by replacing the pH/SG-Neo(L+I) NS3-NS5A coding region with the corresponding sequence of pH77-S, creating pH/SG-lucubineo-H77S as described (Borawski J et al. 2009, J Virol 83: 10058-10074). Subsequently, the firefly luciferase-Neo cassette was replaced with the hRluc-Neo cassette. To create a unique cloning site, the NotI restriction site in NS5B was removed using QuickChange II XL Site-Directed Mutagenesis Kit (Agilent) and the following primers: NotI KO Fwd 5′-CTCAAACTCACTCCAATAGCTGCCGCTGGCCGGCTGGAC-3′(G→T mutation removing NotI site underlined) (SEQ. ID No. 1) and NotI KO Rev 5′-GTCCAGCGGGCCAGCGGCAGCTATTGGAGTGAGTTTGAG-3′(C→A mutation removing NotI site underlined) (SEQ. ID No. 2). The resulting vector, pH/SG-lucubineo-H775-NotIKO, was sequenced to confirm the NS5B gene. The hRluc-Neo cassette was PCR amplified from pF9 cytomegalovirus (CMV) hRluc-Neo Flexi(R) (Promega) using Accuprime Super Mix II (Invitrogen) and the following primers, which introduce restriction sites: […]
The amplification product was subcloned into pCR2.1-TOPO (Invitrogen). The resulting plasmid was digested with AscI and NotI, and the excised hRluc-Neo fragment was ligated using the Promega Rapid Ligation Kit (Promega) into pH/SG-lucubineo-H775-NotIKO digested with the same enzymes.
Stable HCV replicon cell lines were grown in complete media (Dulbecco's modified Eagle medium [DMEM], 2 mM L-glutamine, 0.1 mM essential amino acids, 1 mM sodium pyruvate, 10% heat inactivated fetal bovine serum) with the addition 500 μg/ml […] (G418). Huh7-lunet cells were maintained in the same medium without the addition of G418. Cells were routinely passaged at a dilution of 1:4 two times a week. The assay medium for both luciferase reporter HCV replicon and cytotoxicity assays used phenol red-free DMEM and lacked G418. For each stable replicon assay, a sixteen point half-log dilution series of compound was stamped (0.5 ul compound per well) into three replica 384-well plates, to which cells were added directly (4000 cells/well). For the transient replication assay, Huh7-lunet cells in ice-cold phosphate buffered saline (PBS) were electroporated (BioRad electroporator; 950 uF, 270V) with 10 ug purified in vitro transcribed HCV replicon RNA, followed by resuspension in complete media and plating (8000 cells/well) into compound stamped 384-well plates. Luciferase activity of compound-treated cells was measured relative to DMSO-treated cells after 72 h incubation using RENILLA-GLO™ Luciferase Assay (Promega). Cytotoxicity (CC50) in the GT1b replicon cell line was analyzed using CELL TITER-GLO™ (Promega). […]

[1] = test system: GT1a replicon encoding NS5A mutation Q30R; assay: Transient replication assay, GT1a replicon with NS5A mutation Q30R; conditions: Hepatitis C virus
[2] = test system: GT1a replicon encoding NS5A mutation L31V; assay: Transient replication assay, GT1a replicon with NS5A mutation L31V; conditions: Hepatitis C virus
[3] = test system: GT1a replicon encoding NS5A mutation Y93H; assay: Transient replication assay, GT1a replicon with NS5A mutation Y93H; conditions: Hepatitis C virus
[4] = HCV GT 1a replicon, 72 h, read-out: EC50 1a

Row | SMILES | EC50 (HCV GT 1a replicon; [4]) [nM] | EC50 ([1]; read-out: EC50 1a Q30R) [nM] | EC50 ([2]; read-out: EC50 1a L31V) [nM] | EC50 ([3]; read-out: EC50 1a Y93H) [nM] | EC50 (HCV GT 1a replicon; comparative table, GT 1a, read-out: EC50 (nM) 1a) [nM] | EC50 ([1]; read-out: EC50 (nM) 1a Q30R) [nM] | EC50 ([2]; read-out: EC50 (nM) 1a L31V) [nM] | EC50 ([3]; read-out: EC50 (nM) 1a Y93H) [nM]
1 | COC(=O)N[C@H](C(=O)N1CCC[C@H]1c1nc2ccc3cc(-c4ccc5c(ccc6nc([C@@H]7C[C@@]8(CCCOC8)CN7C(=O)[C@@H](NC(=O)OC)C(C)C)[nH]c65)c4)ccc3c2[nH]1)C(C)C [Compound 48] | 0.006 | 0.05 | 0.5 | 2 | – | – | – | –
2 | COC(=O)N[C@H](C(=O)N1C[C@]2(CCCOC2)C[C@H]1c1nc2ccc3cc(-c4ccc5c(ccc6nc([C@@H]7C[C@@H]8CCCC[C@@H]8N7C(=O)[C@@H](NC(=O)OC)C(C)C)[nH]c65)c4)ccc3c2[nH]1)C(C)C [Compound 23] | 0.012 | 0.01 | 0.07 | 1 | – | – | – | –
3 | COC(=O)N[C@H](C(=O)N1C[C@]2(CCCOC2)C[C@H]1c1ncc(-c2ccc(-c3ccc(-c4cnc([C@@H]5C[C@@H]6CCCC[C@@H]6N5C(=O)[C@@H](NC(=O)OC)C(C)C)[nH]4)cc3)cc2)[nH]1)C(C)C [Compound 32] | 0.007 | 0.04 | 0.4 | 7 | – | – | – | –
4 | COC(=O)N[C@H](C(=O)N1C[C@]2(CCCOC2)C[C@H]1c1ncc(-c2ccc(-c3ccc4c(ccc5nc([C@@H]6CCCN6C(=O)[C@@H](NC(=O)OC)C(C)C)[nH]c54)c3)cc2)[nH]1)C(C)C [drawing 233] | – | – | – | – | 0.01 | 0.1 | 1 | 8
5 | COC(=O)N[C@H](C(=O)N1[C@H](c2nc3ccc4cc(-c5ccc(-c6cnc([C@@H]7C[C@@]8(CCCOC8)CN7C(=O)[C@H](NC(=O)OC)C7C[C@@H](C)O[C@H](C)C7)[nH]6)cc5)ccc4c3[nH]2)C[C@@H]2CCCC[C@@H]21)C(C)C (stereo in doubt) [Compound 39] | 0.214 | 0.05 | 4 | 213 | – | – | – | –
6 | COC(=O)N[C@H](C(=O)N1C[C@]2(CCCOC2)C[C@H]1c1nc2ccc3cc(-c4ccc5c(ccc6nc([C@@H]7C[C@@H]8C[C@@H]8N7C(=O)[C@@H](NC(=O)OC)C(C)C)[nH]c65)c4)ccc3c2[nH]1)C(C)C [Compound 21] | 0.02 | 0.1 | 1 | 4 | – | – | – | –
7 | COC(=O)N[C@H](C(=O)N1C[C@]2(CCCOC2)C[C@H]1c1nc2ccc3cc(-c4ccc5c(ccc6nc([C@@H]7C[C@H]8C[C@H]8N7C(=O)[C@@H](NC(=O)OC)C(C)C)[nH]c65)c4)ccc3c2[nH]1)C(C)C [Compound 6] | 0.007 | 0.04 | 0.2 | 0.8 | – | – | – | –
8 | COC(=O)N[C@H](C(=O)N1C[C@]2(CCOC2)C[C@H]1c1ncc(-c2ccc(-c3ccc4c(ccc5nc([C@@H]6CCCN6C(=O)[C@@H](NC(=O)OC)C(C)C)[nH]c54)c3)cc2)[nH]1)C(C)C [Compound 26] | 0.025 | 0.8 | 11 | 42 | – | – | – | –
9 | COC(=O)N[C@H](C(=O)N1CCC[C@H]1c1nc2ccc(C#Cc3ccc4c(ccc5nc([C@@H]6CCCN6C(=O)[C@@H](NC(=O)OC)C(C)C)[nH]c54)c3)cc2[nH]1)C(C)C [Example 103] | 0.012 | 3 | 29 | 112 | – | – | – | –
10 | COC(=O)N[C@H](C(=O)N1C[C@]2(CCCOC2)C[C@H]1c1ncc(-c2ccc(-c3ccc4c(ccc5nc([C@@H]6CC7(CC7)CN6C(=O)[C@@H](NC(=O)OC)C(C)C)[nH]c54)c3)cc2)[nH]1)C(C)C [Compound 28] | 0.011 | 0.06 | 0.3 | 16 | – | – | – | –
11 | COC(=O)N[C@H](C(=O)N1C[C@]2(CCCOC2)C[C@H]1c1ncc(-c2ccc3c(ccc4cc(-c5cnc([C@@H]6C[C@@H]7CCCC[C@@H]7N6C(=O)[C@@H](NC(=O)OC)C(C)C)[nH]5)ccc43)c2)[nH]1)C(C)C [Compound 17] | 0.012 | 0.01 | 0.3 | 5 | – | – | – | –
12 | COC(=O)N[C@H](C(=O)N1C[C@]2(CCCOC2)C[C@H]1c1nc2ccc3cc(-c4ccc(-c5cnc([C@@H]6C[C@@H]7CCC[C@@H]7N6C(=O)[C@@H](NC(=O)OC)C(C)C)[nH]5)cc4)ccc3c2[nH]1)C(C)C [Compound 10] | 0.005 | 0.02 | 0.05 | 4 | – | – | – | –
